Experimental data from ChEMBL document CHEMBL1201862, “PubChem BioAssay data set” (2004).
Active and inactive are the calls of the source.

Experiments:
[1] = molecular target: Cytochrome P450 2D6 (Homo sapiens, UniProt P10635);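 also: CYP2D6 member of a cytochrome P450 panel assay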
[2] = molecular target: Cytochrome P450 2C19 (Homo sapiens, UniProt P33261); assay: Cytochrome panel assay with activity outcomes. Panel member name: p450-cyp2c19 Compounds with AC50 equal or less than 10 uM are considered active; type: functional
[3] = molecular target: Cytochrome P450 3A4 (Homo sapiens, UniProt P08684);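 also: CYP3A4 tested as one member of a cytochrome P450 panel screen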
[4] = molecular target: T1, Heat shock factor protein 1 (Mus musculus, UniProt P38532); assay: HSF1 potentiators in luciferase reporter cells, confirmation, cell-based, NIH3T3, luminescence, dose retest (AID 435004); type: functional;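 also: stress induced by proteasome inhibitor MG132 added 30 min after compound; luciferase reporter driven by HSF1 response element in NIH3T3 cells; actives raise luminescence as potentiators of the MG132 stress response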
T1 sequence (P38532 whole entry): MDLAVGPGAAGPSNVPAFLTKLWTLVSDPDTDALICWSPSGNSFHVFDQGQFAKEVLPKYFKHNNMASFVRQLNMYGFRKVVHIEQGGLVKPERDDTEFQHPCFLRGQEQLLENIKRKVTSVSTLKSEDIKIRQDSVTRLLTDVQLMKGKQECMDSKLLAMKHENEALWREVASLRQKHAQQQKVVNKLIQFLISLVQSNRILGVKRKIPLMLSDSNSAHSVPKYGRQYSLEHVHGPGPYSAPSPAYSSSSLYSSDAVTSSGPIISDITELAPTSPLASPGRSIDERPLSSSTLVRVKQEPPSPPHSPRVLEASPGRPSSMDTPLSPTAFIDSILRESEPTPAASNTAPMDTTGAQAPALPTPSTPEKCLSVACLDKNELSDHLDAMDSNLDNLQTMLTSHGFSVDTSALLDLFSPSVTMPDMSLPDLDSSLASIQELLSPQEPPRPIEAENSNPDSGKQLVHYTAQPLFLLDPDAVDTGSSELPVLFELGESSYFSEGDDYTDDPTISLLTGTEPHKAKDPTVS

[5] = molecular target: T2, Protein RecA (Mycobacterium tuberculosis, UniProt P9WHJ3); assay: Fluorescence Cell-Free Homogeneous Dose Retest to Identify Inhibitors of RecA-Intein Splicing Activity. [Related pubchem assays (depositor defined):AID2097, AID2223, AID489010, AID492950]; type: functional
T2 sequence (P9WHJ3 whole entry): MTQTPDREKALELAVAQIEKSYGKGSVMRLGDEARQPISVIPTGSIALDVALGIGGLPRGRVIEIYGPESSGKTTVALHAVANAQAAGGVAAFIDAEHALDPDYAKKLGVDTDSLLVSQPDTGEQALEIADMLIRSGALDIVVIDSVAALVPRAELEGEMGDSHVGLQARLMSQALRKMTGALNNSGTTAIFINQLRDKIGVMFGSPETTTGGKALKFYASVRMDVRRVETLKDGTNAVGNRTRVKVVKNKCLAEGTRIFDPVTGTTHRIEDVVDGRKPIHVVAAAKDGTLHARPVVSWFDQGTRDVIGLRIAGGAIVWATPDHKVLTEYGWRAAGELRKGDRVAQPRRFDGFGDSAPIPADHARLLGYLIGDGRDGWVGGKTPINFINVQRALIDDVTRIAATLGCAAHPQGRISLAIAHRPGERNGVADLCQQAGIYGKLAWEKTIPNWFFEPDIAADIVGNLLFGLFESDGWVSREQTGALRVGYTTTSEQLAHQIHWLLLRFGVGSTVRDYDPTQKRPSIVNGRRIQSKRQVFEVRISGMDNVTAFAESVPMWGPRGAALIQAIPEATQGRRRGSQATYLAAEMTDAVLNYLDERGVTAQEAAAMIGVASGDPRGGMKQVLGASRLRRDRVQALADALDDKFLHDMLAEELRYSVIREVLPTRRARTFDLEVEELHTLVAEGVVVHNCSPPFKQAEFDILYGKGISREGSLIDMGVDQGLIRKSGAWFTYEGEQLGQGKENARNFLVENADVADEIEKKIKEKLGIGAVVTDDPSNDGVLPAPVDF

[6] = molecular target: T3, Replicative DNA helicase DnaB (Mycobacterium tuberculosis, UniProt P9WMR3); assay: DnaB intein splicing inhibitors, dose response, biochemical, cell-free fluorescence (AID 449749); type: functional
T3 sequence (P9WMR3 whole entry): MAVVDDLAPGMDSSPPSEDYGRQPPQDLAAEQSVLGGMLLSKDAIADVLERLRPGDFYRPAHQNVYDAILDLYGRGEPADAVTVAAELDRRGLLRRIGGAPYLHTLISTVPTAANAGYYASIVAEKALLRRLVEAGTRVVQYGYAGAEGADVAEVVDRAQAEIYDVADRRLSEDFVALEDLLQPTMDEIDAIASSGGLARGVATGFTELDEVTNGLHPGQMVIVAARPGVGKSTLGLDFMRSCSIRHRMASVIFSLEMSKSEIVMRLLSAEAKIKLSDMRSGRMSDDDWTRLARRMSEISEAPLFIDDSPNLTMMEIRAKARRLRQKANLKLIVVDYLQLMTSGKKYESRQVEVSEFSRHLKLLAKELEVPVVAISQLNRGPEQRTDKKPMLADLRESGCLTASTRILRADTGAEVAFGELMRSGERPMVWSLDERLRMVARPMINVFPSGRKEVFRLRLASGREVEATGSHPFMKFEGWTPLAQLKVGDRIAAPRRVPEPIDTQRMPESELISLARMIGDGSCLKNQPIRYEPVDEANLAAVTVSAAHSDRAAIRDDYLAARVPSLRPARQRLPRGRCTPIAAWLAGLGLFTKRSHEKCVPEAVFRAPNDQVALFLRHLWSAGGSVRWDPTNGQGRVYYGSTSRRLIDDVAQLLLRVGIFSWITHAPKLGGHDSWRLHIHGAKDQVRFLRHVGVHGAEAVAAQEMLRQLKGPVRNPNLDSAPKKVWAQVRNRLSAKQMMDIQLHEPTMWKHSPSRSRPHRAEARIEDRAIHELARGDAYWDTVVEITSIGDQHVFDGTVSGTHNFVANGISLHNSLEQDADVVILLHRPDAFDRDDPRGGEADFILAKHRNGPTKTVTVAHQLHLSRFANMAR

[7] = molecular target: T4, Cytochrome P450 1A2 (Homo sapiens, UniProt P05177);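 also: PubChem cytochrome P450 panel assay, CYP1A2 panel member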
T4 sequence (P05177 whole entry): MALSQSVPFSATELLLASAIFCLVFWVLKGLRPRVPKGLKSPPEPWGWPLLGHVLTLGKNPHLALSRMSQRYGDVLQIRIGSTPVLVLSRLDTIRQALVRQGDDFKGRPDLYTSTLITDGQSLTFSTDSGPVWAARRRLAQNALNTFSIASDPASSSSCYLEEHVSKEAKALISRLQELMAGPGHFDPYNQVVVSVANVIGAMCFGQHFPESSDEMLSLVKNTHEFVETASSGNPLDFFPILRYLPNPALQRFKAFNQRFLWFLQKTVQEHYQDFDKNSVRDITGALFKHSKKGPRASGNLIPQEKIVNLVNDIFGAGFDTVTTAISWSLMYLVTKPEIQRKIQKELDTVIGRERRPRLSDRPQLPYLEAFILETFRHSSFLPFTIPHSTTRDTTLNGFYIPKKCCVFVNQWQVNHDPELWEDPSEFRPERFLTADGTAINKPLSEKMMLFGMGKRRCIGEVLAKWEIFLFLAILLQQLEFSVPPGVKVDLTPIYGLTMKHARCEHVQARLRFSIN

[8] = inhibitors of intracellular T. cruzi replication, confirmation, NIH3T3 host cells, beta-gal luminescence (AID 2044); type: functional, cell-based;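 also: intracellular parasites grown in NIH/3T3 mouse fibroblasts as host cells; luminescent beta-galactosidase reporter signal from transgenic T. cruzi replicating inside host cells; inhibitors lower the luminescence signal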
[9] = cytotoxicity toward NIH3T3 fibroblasts, dose response, counter-screen, cell-based, ATP luminescence, mouse fibroblasts (AID 2010); type: functional;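 also: cells exposed to compound for about 90 hours before reading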
[10] = Luminescence Cell-Based Dose Retest to Confirm Inhibitors of Cancer Stem Cells. [Related pubchem assays (depositor defined):AID2717, AID2721]; type: functional; conditions: Homo sapiens
[11] = system: INS1; assay: beta cell apoptosis inhibitors, cytokine rescue, dose response, luminescence, retest (AID 449756); type: functional, cell-based; conditions: Rattus norvegicus, INS1;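 also: cell death triggered by IL-1 beta plus TNF-alpha plus IFN-gamma mixture; protective hits raise ATP signal compared with cytokine alone wells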
[12] = inhibitors of SNCA 5'UTR-driven reporter translation, confirmation, H4 neuroglioma cells, luminescence (AID 1988); type: functional, cell-based
[13] = inhibitors of firefly luciferase expression or activity, dose response, H4 neuroglioma cells, luminescence (AID 1990); type: functional, cell-based
[14] = Luminescence Cell-Based Dose Response HTS to Identify Inhibitors of 5'UTR Stem-Loop Driven Prion Protein mRNA Translation in H4 Neuroglioblastoma Cells. [Related pubchem assays: 1827 (Project Summary), 1813 (Primary HTS)]; type: functional

Chain of Cytochrome P450 3A4 (P08684 whole entry): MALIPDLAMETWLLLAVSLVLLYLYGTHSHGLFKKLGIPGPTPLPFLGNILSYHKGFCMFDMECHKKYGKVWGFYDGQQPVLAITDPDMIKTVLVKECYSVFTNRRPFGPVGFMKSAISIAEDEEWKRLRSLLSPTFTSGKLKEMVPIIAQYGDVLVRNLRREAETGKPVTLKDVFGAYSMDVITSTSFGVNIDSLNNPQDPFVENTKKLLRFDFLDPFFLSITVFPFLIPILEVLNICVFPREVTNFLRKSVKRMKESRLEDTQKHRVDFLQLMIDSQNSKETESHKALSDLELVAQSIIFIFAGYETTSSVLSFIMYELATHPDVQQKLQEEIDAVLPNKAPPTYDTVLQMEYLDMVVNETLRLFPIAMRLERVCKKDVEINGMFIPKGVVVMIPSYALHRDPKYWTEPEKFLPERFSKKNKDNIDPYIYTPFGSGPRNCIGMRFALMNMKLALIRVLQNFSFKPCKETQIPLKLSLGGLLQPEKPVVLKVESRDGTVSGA
Chain of Cytochrome P450 2D6 (P10635 whole entry): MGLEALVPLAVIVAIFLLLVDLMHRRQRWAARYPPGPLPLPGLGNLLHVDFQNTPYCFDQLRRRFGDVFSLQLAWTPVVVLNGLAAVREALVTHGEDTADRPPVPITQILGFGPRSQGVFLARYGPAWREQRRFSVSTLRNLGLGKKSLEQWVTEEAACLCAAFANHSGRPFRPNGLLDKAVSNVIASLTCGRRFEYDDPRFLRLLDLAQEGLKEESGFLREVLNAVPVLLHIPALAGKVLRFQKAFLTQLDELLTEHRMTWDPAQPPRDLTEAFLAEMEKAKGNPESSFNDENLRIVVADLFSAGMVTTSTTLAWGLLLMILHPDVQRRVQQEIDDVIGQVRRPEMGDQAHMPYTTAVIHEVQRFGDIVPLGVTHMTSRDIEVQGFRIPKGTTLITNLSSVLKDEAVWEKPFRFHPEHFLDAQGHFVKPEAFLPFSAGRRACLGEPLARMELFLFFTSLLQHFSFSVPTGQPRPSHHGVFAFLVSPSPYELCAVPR
Chain of Cytochrome P450 2C19 (P33261 whole entry): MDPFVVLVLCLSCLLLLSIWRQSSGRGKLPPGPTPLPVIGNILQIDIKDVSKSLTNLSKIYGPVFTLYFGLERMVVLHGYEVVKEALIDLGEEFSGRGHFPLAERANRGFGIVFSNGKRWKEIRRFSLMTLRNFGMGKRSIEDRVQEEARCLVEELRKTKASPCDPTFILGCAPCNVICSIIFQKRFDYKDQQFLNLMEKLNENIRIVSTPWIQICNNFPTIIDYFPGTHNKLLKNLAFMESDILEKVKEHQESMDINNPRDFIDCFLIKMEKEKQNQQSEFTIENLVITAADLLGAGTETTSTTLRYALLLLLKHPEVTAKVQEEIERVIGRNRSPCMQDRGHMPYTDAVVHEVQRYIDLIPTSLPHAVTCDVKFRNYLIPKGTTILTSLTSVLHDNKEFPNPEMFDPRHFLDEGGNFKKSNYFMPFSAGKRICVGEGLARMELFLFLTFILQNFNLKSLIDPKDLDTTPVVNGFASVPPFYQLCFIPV

## COc1ncc2nc(CCc3ccccc3)c(=O)n(Cc3cccs3)c2n1
[1]
  AC50: 12.6 µM (inconclusive)

## CC[C@@H]1CC(=O)N(SC[C@H](N)C(=O)O)C1=O
[2]
  AC50: inconclusive

## COc1ccc(CNc2nc(-c3cccc(NS(C)(=O)=O)c3)nc3ccccc23)c(OC)c1
[1]
  AC50: 12.6 µM (inconclusive)

## CN1CCN(C2CC(=O)N(Cc3ccc(N4CCCC4=O)cc3)C2=O)CC1 (stereo not given)
[2]
  AC50: inconclusive

## CC1CCC(C(=O)NC(C(=O)N2CCC(N3CCCCC3)CC2)C(C)C)CC1 (stereo not given)
[3]
  AC50: 14.1 µM (inconclusive)
[2]; read-out: AC50
  AC50: 8.91 µM (inconclusive)

## Cc1noc(C)c1-c1nc(NCCN2CCOCC2)c2ccccc2n1
[1]
  AC50: 25.1 µM (inconclusive)

## O=C(CSc1ncnc2c1nnn2-c1ccc(F)cc1)NCC1CCCO1 (stereo not given)
[4]
  EC50: 36.2 µM (active)
[5]
  EC50: 3.67 µM (active)
[6]
  AC50: 3.14 µM (active)

## COc1ccc(N2CCN(c3ncnc4c3cnn4-c3ccc(C)cc3C)CC2)cc1
[4]
  EC50: > 260 µM (inactive)

## COc1ccc(N=Nc2ccc(CO)cc2)cc1
[4]
  EC50: > 260 µM (inactive)

## c1cc(CNCCCN2CCOCC2)ccn1
[3]
  AC50: 31.6 µM (inconclusive)
[1]
  AC50: 15.8 µM (inconclusive)

## O=[N+]([O-])c1ccc(C2CCCC/C2=N\OCc2cccc(F)c2)c([N+](=O)[O-])c1 (stereo not given)
[7]
  AC50: 15.8 µM (inconclusive)
[8]
  EC50: 0.518 µM (active)
[9]
  EC50: > 60 µM (not active)

## COc1ccc2c3c(ccc2c1)N[C@H](C(=O)O)CC3
[7]
  AC50: 0.501 µM (inconclusive)

## CCOC(=O)C1CCN(Cc2cnc(Oc3ccc(OC)cc3)s2)CC1
[1]
  AC50: 22.4 µM (inconclusive)

## CCOc1ccc(NC(=O)Nc2ccc(Cc3ccncc3)cc2)cc1
[10]
  AC50: 8.67 µM (active)

## COc1c(O)ccc2c1CN1CCc3cc4c(cc3[C@@H]1C2)OCO4
[3]
  AC50: 5.01 µM (inconclusive)
[7]
  AC50: 0.501 µM (inconclusive)
[2]; read-out: AC50
  AC50: 3.98 µM (inconclusive)

## CC(C)(C)c1ccc(COC(=O)CNC(=O)CNC(=O)Cc2ccccc2)cc1
[2]; read-out: AC50
  AC50: 31.6 µM (inconclusive)

## CCOc1ccc(OCCC(=O)OCC(=O)N2CCN(S(=O)(=O)c3ccc(Cl)cc3)CC2)cc1
[4]
  EC50: 18.5 µM (active)

## CN(Cc1ccco1)c1ccnc(-c2cccc(C#N)c2)n1
[1]
  AC50: 20 µM (inconclusive)

## Fc1ccc(Nc2ccnc(-c3ccccc3C(F)(F)F)n2)cc1
[1]
  AC50: 39.8 µM (inconclusive)

## CN1CCN(c2nc(-c3cccc(C#N)c3)nc3ccccc23)CC1
[1]
  AC50: 12.6 µM (inconclusive)

## CCOc1ncccc1C(=O)N(C)CC1COc2ccccc2O1 (stereo not given)
[4]
  EC50: > 260 µM (inactive)

## O=C(NC(=S)Nc1ccccc1C(F)(F)F)c1ccccc1F
[4]
  EC50: 143 µM (active)

## CC(NC(=O)C1CCC(C(=O)NC(C)c2ccccc2)CC1)c1ccccc1 (stereo not given)
[10]
  AC50: > 195 µM (inactive)
[11]
  AC50: > 260 µM (inactive)

## CC(=O)N1c2ccc(Cl)cc2C2C=CCC2C1c1cccc2ccccc12 (stereo not given)
[10]
  AC50: 2.27 µM (active)

## C=CCCC(=O)Nc1nc(C)c(-c2csc(Nc3cc(OC)ccc3OC)n2)s1
[12]
  EC50: 5.52 µM (active)
[13]
  EC50: > 120 µM (not active)
[10]
  AC50: 0.71 µM (active)
[14]
  EC50: 12.1 µM (active)

## CCOC(=O)C(/C=N/c1ccc(C#N)cc1)=C(/O)OCC
[4]
  EC50: > 260 µM (inactive)

## CSc1nc2n(n1)C(c1cc(Br)ccc1F)C(C(=O)N(C)C)=C(C)N2 (stereo not given)
[3]
  AC50: 14.1 µM (inconclusive)
[7]
  AC50: 25.1 µM (inconclusive)

## COc1ccccc1-c1c[nH]nc1-c1ccc(OCc2ccccc2F)cc1O
[10]
  AC50: 4.88 µM (active)

## CCCCN(CC)C(=O)Cc1ccccc1OC
[1]
  AC50: 28.2 µM (inconclusive)

## Cc1cc(NC(=O)COc2ccc(Cl)cc2Cl)n(-c2ccccc2)n1
[1]
  AC50: 7.08 µM (inconclusive)

## O=C(NNc1c(F)c(F)cc(F)c1F)c1ccc(Cl)nc1
[4]
  EC50: > 260 µM (inactive)

## CC(C)C(=O)NCCc1nc2ccccc2n1CCCOc1ccc(Cl)cc1
[7]
  AC50: 28.2 µM (inconclusive)

## CCN(CC)C(=O)CSc1ncnc2sc(C)c(C)c12
[4]
  EC50: > 260 µM (inactive)

## Cc1ccc2nc(N(CCCN(C)C)C(=O)c3cc(-c4cccs4)nc4ccccc34)sc2c1
[10]
  AC50: 4.45 µM (active)

## COc1ccc(NS(=O)(=O)c2cccc(C(=O)N/N=C(\C)c3ccc(-n4ccnc4)cc3)c2)cc1
[10]
  AC50: > 195 µM (inactive)

## Cc1ccc(F)cc1NC(=O)N1CCCN(c2ccc(C(F)(F)F)cn2)CC1
[4]
  EC50: > 260 µM (inactive)

## CCN1CCN(Cc2ccc(OCc3ccccc3)cc2)CC1
[10]
  AC50: 1.89 µM (active)

## COc1cc(C(=O)OC2CC3CCC2(C)C3(C)C)ccc1OC(C)=O (stereo not given)
[10]
  AC50: 3.75 µM (active)

## O=C(O)CCc1ccc(-c2ccc(Br)cc2)n1Cc1ccco1
[4]
  EC50: > 260 µM (inactive)

## Cc1ccc2sc(N(CCCN(C)C)C(=O)c3ccc(S(=O)(=O)N4CCCCCC4)cc3)nc2c1C
[10]
  AC50: 3.12 µM (active)
[8]
  EC50: 0.445 µM (active)
[9]
  EC50: 9.3 µM (active)
